Reference: ChEMBL document CHEMBL2069301, “Exploration of the structure-activity relationship of the diaryl anilide class of ligands for translocator protein--potential novel positron emitting tomography imaging agents” (Bioorg Med Chem Lett, 2012)

Tests used:
Translocator protein = Translocator protein (Rattus norvegicus, UniProt P16257); experiment: Displacement of [3H]PK11195 from TSPO in Wistar rat heart incubated for 15 mins
[1] = Lipophilicity, log P of the compound by HPLC method; assay type: physicochemical
Brain = experiment: Stability in naive Wistar rat brain assessed as parent compound level at 1 to 3 MBq, iv using [18F] labeled compound measured 60 mins post dose; assay type: ADME, organism-based; conditions: in vivo, 1 h
[2] = Lipophilicity, log D of the compound at pH 7.4; assay type: physicochemical; conditions: buffer
Rattus norvegicus [3] = experiment: Biodistribution in naive Wistar rat whole brain at 1 to 3 MBq, iv using [18F] labeled compound measured 2 mins post dose; assay type: ADME, organism-based; conditions: in vivo
Rattus norvegicus [4] = experiment: Biodistribution in naive Wistar rat olfactory bulbs at 1 to 3 MBq, iv using [18F] labeled compound measured 30 mins post dose; assay type: ADME, organism-based, Olfactory bulb; conditions: in vivo, 0.5 h
Striatum [5] = experiment: Ratio of biodistribution in olfactory bulbs to striatum of in naive Wistar rat at 1 to 3 MBq, iv using [18F] labeled compound measured 30 mins post dose; assay type: ADME, organism-based; conditions: in vivo, 0.5 h
Striatum [6] = experiment: Ratio of biodistribution in striatum at 2 mins post dose to biodistribution in striatum post 30 mins in naive Wistar rat at 1 to 3 MBq, iv using [18F] labeled compound; assay type: ADME, organism-based; conditions: in vivo

Sequence of Translocator protein (P16257 whole entry, looked up): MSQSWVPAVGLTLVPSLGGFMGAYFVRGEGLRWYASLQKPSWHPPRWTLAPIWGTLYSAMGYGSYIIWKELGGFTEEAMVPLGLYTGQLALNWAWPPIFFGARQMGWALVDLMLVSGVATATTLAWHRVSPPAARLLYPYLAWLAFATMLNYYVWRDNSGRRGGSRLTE

Work on `COc1ccccc1CN(C(=O)CF)c1cnccc1Oc1ccccc1` yielded a Ki (Translocator protein) of 2.18 nM, a logP [1] of 2.72 and a Stability (Brain) of 52%.
Work on `O=C(CF)N(Cc1cccc2c1OCO2)c1ccccc1Oc1ccccc1` yielded a logD ([2]; read-out: logD) of 2.8, a Ki (Translocator protein) of 2.03 nM and a Drug uptake (Rattus norvegicus [3]) of 0.65 % ID/g. The Drug uptake (Rattus norvegicus [4]) was 0.37 % ID/g, the Ratio (Striatum [5]) was 2.85 and the Ratio (Striatum [6]) was 4.77. For the same molecule, the Stability (Brain) was 92%.
Work on `CC(=O)N(Cc1ccccc1OCCF)c1cccnc1Oc1ccccc1` yielded a logD ([2]; read-out: logD) of 1.69, a Drug uptake (Rattus norvegicus [3]) of 0.45 % ID/g and a Drug uptake (Rattus norvegicus [4]) of 0.4 % ID/g. The Ratio (Striatum [5]) was 3.08 and the Ratio (Striatum [6]) was 2.85.
For `CC(=O)N(Cc1cccnc1OCCF)c1ccccc1Oc1ccccc1`, the logD ([2]; read-out: logD) was 2.6.
In the case of `COc1ccc(OCCF)c(CN(C(C)=O)c2cccnc2Oc2ccccc2)c1`, the logD ([2]; read-out: logD) is reported as 1.58, the Ki (Translocator protein) is reported as 7.28 nM and the Drug uptake (Rattus norvegicus [3]) is reported as 0.25 % ID/g. It also gave a Drug uptake (Rattus norvegicus [4]) of 0.26 % ID/g, a Ratio (Striatum [5]) of 5.2 and a Ratio (Striatum [6]) of 4.4.
With `O=C(CF)N(Cc1cccc2c1OCCO2)c1ccccc1Oc1ccccc1` the logD ([2]; read-out: logD) was 1.96, the Ki (Translocator protein) was 1.14 nM and the Drug uptake (Rattus norvegicus [3]) was 0.72 % ID/g. For the same molecule, the Drug uptake (Rattus norvegicus [4]) was 0.4 % ID/g, the Ratio (Striatum [5]) was 2.5 and the Ratio (Striatum [6]) was 3.88. The Stability (Brain) was 82%.
With `CCC(C)N(C)C(=O)c1cc2ccccc2c(-c2ccccc2Cl)n1` (centres undefined) [PK-11195] the logD ([2]; read-out: logD) was 3.73.
`COc1ccc(OC)c(CN(C(=O)CF)c2cc(F)ccc2Oc2ccccc2)c1` gave a logD ([2]; read-out: logD) of 2.06, a Ki (Translocator protein) of 0.05 nM and a Drug uptake (Rattus norvegicus [3]) of 0.73 % ID/g. It also gave a Drug uptake (Rattus norvegicus [4]) of 0.7 % ID/g, a Ratio (Striatum [5]) of 2.06 and a Ratio (Striatum [6]) of 1.71.
Molecule `COc1ccc(OC)c(CN(C(=O)CF)c2cc(F)ccc2OC(C)C)c1` has a Ki (Translocator protein) of 9.84 nM.
`COc1ccc(OC)c(CN(C(=O)CF)c2cncnc2Oc2ccccc2)c1` showed a Ki (Translocator protein) of 63 nM and a logP [1] of 2.79.
`O=C(CF)N(Cc1cccs1)c1ccccc1Oc1ccccc1` gave a logD ([2]; read-out: logD) of 1.98 and a Ki (Translocator protein) of 163 nM.
Work on `CC(=O)N(Cc1cccn(CCF)c1=O)c1ccccc1Oc1ccccc1` yielded a logD ([2]; read-out: logD) of 2.2 and a Ki (Translocator protein) of 105 nM.
Work on `COc1ccc(OC)c(CN(C(=O)CF)c2ccccc2S(=O)(=O)c2ccccc2)c1` yielded a Ki (Translocator protein) of 3430 nM.
`COc1ccc(OC)c(CN(C(=O)CF)c2ccccc2Oc2ccccc2)c1` gave a logD [2] of 2.36.
For `COc1ccc(OC)c(CN(C(=O)C[18F])c2ccccc2Oc2ccccc2)c1`, the Drug uptake (Rattus norvegicus [3]) was 0.74 % ID/g and the Stability (Brain) was 91%.
`COc1ccc(OC)c(CN(C(=O)CF)c2ccccc2Sc2ccccc2)c1` gave a Ki (Translocator protein) of 4.48 nM, a Drug uptake (Rattus norvegicus [3]) of 0.61 % ID/g and a Drug uptake (Rattus norvegicus [4]) of 0.17 % ID/g. The Ratio (Striatum [5]) was 1.88 and the Ratio (Striatum [6]) was 6.22.
Work on `COc1ccc(OC)c(CN(C(=O)CF)c2cccc3cc(C)oc23)c1` yielded a Ki (Translocator protein) of 6.38 nM, a Drug uptake (Rattus norvegicus [3]) of 0.68 % ID/g and a Drug uptake (Rattus norvegicus [4]) of 0.35 % ID/g. For the same molecule, the Ratio (Striatum [5]) was 3.5, the Ratio (Striatum [6]) was 6.3 and the Stability (Brain) was 80%.
In the case of `COc1ncccc1CN(C(=O)CF)c1ccccc1Oc1ccccc1`, the logD ([2]; read-out: logD) is reported as 2.38, the Drug uptake (Rattus norvegicus [3]) is reported as 0.66 % ID/g and the Drug uptake (Rattus norvegicus [4]) is reported as 0.33 % ID/g. It also gave a Ratio (Striatum [5]) of 2.54 and a Ratio (Striatum [6]) of 3.92.
In the case of `Cc1ccc(CN(C(=O)CF)c2ccccc2Oc2ccccc2)o1`, the logD ([2]; read-out: logD) is reported as 2.19 and the Ki (Translocator protein) is reported as 72.1 nM.
Molecule `COc1ccc(OC)c(CN(C(=O)CF)c2ccccc2OC2CCCC2)c1` has a logD ([2]; read-out: logD) of 3.8, a Ki (Translocator protein) of 0.46 nM and a Drug uptake (Rattus norvegicus [3]) of 0.53 % ID/g. It also gave a Drug uptake (Rattus norvegicus [4]) of 0.23 % ID/g, a Ratio (Striatum [5]) of 2.56 and a Ratio (Striatum [6]) of 5.56. The Stability (Brain) was 45%.
For `COc1ncccc1CN(C(=O)CF)c1cc(F)ccc1Oc1ccccc1`, the logD ([2]; read-out: logD) was 2.3, the Ki (Translocator protein) was 3.52 nM and the Drug uptake (Rattus norvegicus [3]) was 0.84 % ID/g. For the same molecule, the Drug uptake (Rattus norvegicus [4]) was 0.5 % ID/g, the Ratio (Striatum [5]) was 2.78 and the Ratio (Striatum [6]) was 4.39. The Stability (Brain) was 72%.
Molecule `COc1ccccc1CN(C(=O)CF)c1cccnc1Oc1ccccc1` has a logD ([2]; read-out: logD) of 1.51, a Ki (Translocator protein) of 125 nM and a Drug uptake (Rattus norvegicus [3]) of 0.55 % ID/g. The Drug uptake (Rattus norvegicus [4]) was 0.15 % ID/g, the Ratio (Striatum [5]) was 1.36 and the Ratio (Striatum [6]) was 4.82.
`COc1ccc(OC)c(CN(C(C)=O)c2cc(F)ccc2Oc2ccccc2)c1` showed a Ki (Translocator protein) of 0.43 nM.
With `O=C(CF)N(Cc1cccc2c1OCC2)c1ccccc1Oc1ccccc1` the logD ([2]; read-out: logD) was 2.68, the Ki (Translocator protein) was 0.31 nM and the Drug uptake (Rattus norvegicus [3]) was 0.81 % ID/g. The Drug uptake (Rattus norvegicus [4]) was 0.68 % ID/g, the Ratio (Striatum [5]) was 2.52 and the Ratio (Striatum [6]) was 2.52. It also gave a Stability (Brain) of 91%.
`CCC(C)N([11CH3])C(=O)c1cc2ccccc2c(-c2ccccc2Cl)n1` (centres undefined) showed a Drug uptake (Rattus norvegicus [3]) of 0.28 % ID/g.
With `COc1ccccc1CN(C(=O)CF)c1ccccc1OC1CCCC1` the logD ([2]; read-out: logD) was 2.35, the Ki (Translocator protein) was 6.65 nM and the Drug uptake (Rattus norvegicus [3]) was 0.77 % ID/g. It also gave a Drug uptake (Rattus norvegicus [4]) of 0.42 % ID/g, a Ratio (Striatum [5]) of 3.23 and a Ratio (Striatum [6]) of 5.46. It also gave a Stability (Brain) of 62%.
Molecule `COc1ccc(OC)c(CN(C(=O)CF)c2ccccc2OC(C)C)c1` has a logD ([2]; read-out: logD) of 2.62 and a Ki (Translocator protein) of 3.8 nM.
Work on `CC1(C)Cc2cccc(CN(C(=O)CF)c3ccccc3Oc3ccccc3)c2O1` yielded a logD ([2]; read-out: logD) of 2.6, a Ki (Translocator protein) of 2.66 nM and a Drug uptake (Rattus norvegicus [3]) of 0.58 % ID/g. For the same molecule, the Drug uptake (Rattus norvegicus [4]) was 0.23 % ID/g, the Ratio (Striatum [5]) was 1.53 and the Ratio (Striatum [6]) was 3.8.
